Measured values from patent US20100119483A1, “PEPTIDE VIRAL ENTRY INHIBITORS” (Schering Corporation, priority 2004, published 2010).
Values joined by “and” are separate entries in the source; they are usually repeats but may differ in a detail not shown here. Identical values can stand only once.

System: HCV pseudoparticles
Assay: HCV pseudoparticle (HCVpp) entry assay in Huh7 hepatoma cells, luciferase readout
Type: cell-based, hepatitis C virus
Details: for % of control at ~30 uM: percentage of hepatitis C virus cellular entry at 30 μM peptide vs uninhibited control
Method: HCV pseudotype particle generation. Single cycle HCV pseudoparticles are composed of a replication-defective HIV genome and HCV envelope proteins. These pseudoparticles were made by transfecting 293T cells with 5 ug of each pNL43E-R-luc (Chen et al., J. Virol. 68(2):654-60 (1994)) and plasmid expressing HCV envelope proteins pCMV/E1-2 with profection transfection kit from Promega (Madison, Wis.). The medium was refreshed 12-24 hours after transfection and supernatant was collected 48 hours after transfection. The supernatant from a transfection of only pNL43E-R-luc was used each time as a control for non specific entry events.
Infection of hepatoma cell lines with HCV pseudotype particles and screen for inhibitory peptides. The hepatoma cells, Huh7, was seeded at 8000 cells in 90 ul medium in 96-well plate. In the case of the inhibitor screen, the inhibitor was incubated with cells for one hour at 37° C. and then 50 ul viral supernatant was added to the cells 24 hours after seeding. The viral stock was pre-tittered and diluted to yield approximately 10,000 to 20,000 RLU. The cells were incubated at 37° C. with 5% CO2 for additional 72 hours and were harvested for luciferase assay. Peptide stocks were prepared in 100% DMSO at 10 mg/ml and were first screened at 100 ug/ml and then a dose responsive curve was generated with 10 points 3-fold titration starting from 100 ug/ml.
The peptide of SEQ ID NO: 77 was first serial diluted by the factor of 3 in 100% DMSO from 100 ug/ml and then transferred to the assay plates at 100-fold dilution. The peptide was first incubated with cells and HCVpp (A) or HIVpp (B), respectively, for 30 minutes at […] in this experiment. Then, the medium containing the peptide was removed from the cells and virus with peptide was added to the cells. Cells were incubated for 72 hours and then were harvested for luciferase assay. Two separate trials were performed.
In addition, the peptide of SEQ ID NO: 77 was mutated at several positions and assayed in the HCV entry assay discussed above. […] The assays were performed essentially as described above.

[1] = 0.1 nM of peptide (printed for three rows), two values per peptide and row
[2] = 0.3 nM of peptide, two values per peptide
[3] = 1 nM of peptide, two values per peptide
[4] = 3 nM of peptide, two values per peptide
[5] = 10 nM of peptide, two values per peptide
[6] = 100 nM of peptide, two values per peptide
[7] = 300 nM of peptide, two values per peptide
[8] = 10000 nM of peptide, two values per peptide
[9] = 30 nM of peptide, two values per peptide
[10] = 30000 nM of peptide, two values per peptide

Row | Substance | % control (HCVpp entry), alanine scanning [1] | % control (HCVpp entry), alanine scanning [2] | % control (HCVpp entry), alanine scanning [3] | % control (HCVpp entry), alanine scanning [4] | % control (HCVpp entry), alanine scanning [5] | % control (HCVpp entry), alanine scanning [6] | % control (HCVpp entry), alanine scanning [7] | % control (HCVpp entry), alanine scanning [8] | % of control at ~30 uM | % control (HCVpp entry), lysine scanning [2] | % control (HCVpp entry), lysine scanning [3] | % control (HCVpp entry), lysine scanning [4] | % control (HCVpp entry), lysine scanning [5] | % control (HCVpp entry), lysine scanning [9] | % control (HCVpp entry), lysine scanning [6] | % control (HCVpp entry), lysine scanning [7] | % control (HCVpp entry), lysine scanning [8] | % control (HCVpp entry), proline scanning [1] | % control (HCVpp entry), proline scanning [2] | % control (HCVpp entry), proline scanning [3] | other results
1 | A-I-K-W-E-Y-V-L-L-L-A-L-L (AIKWEYVLLLALL; HCV peptide) [SEQ ID NO: 95, Ala-scan] | 82 % control and 89 % control and 76 % control and 114 % control and 97 % control and 113 % control | 70 % control and 62 % control | 72 % control and 91 % control | 52 % control and 85 % control | 47 % control and 64 % control | 53 % control and 35 % control | 13 % control and 18 % control | 15 % control and 25 % control | 8% |  |  |  |  |  |  |  |  |  |  |  | 
2 | A-I-K-W-E-Y-V-L-L-L-F-A-L (AIKWEYVLLLFAL; HCV peptide) [SEQ ID NO: 96, Ala-scan] | 95 % control and 86 % control and 100 % control and 96 % control and 72 % control and 132 % control | 91 % control and 98 % control | 124 % control and 78 % control | 76 % control and 85 % control | 58 % control and 73 % control | 24 % control and 41 % control | 36 % control and 26 % control | 33 % control and 20 % control | 24% |  |  |  |  |  |  |  |  |  |  |  | % control (HCVpp entry), alanine scanning [9]: 63 % control and 67 % control; % control (HCVpp entry), alanine scanning [10]: 31 % control
3 | A-I-K-W-E-Y-V-L-L-L-F-K-L (AIKWEYVLLLFKL; HCV peptide) [SEQ ID NO: 136] |  |  |  |  |  |  |  |  |  | 103 % control and 70 % control | 71 % control and 90 % control | 76 % control and 98 % control | 80 % control and 71 % control | 65 % control and 84 % control | 98 % control and 84 % control | 81 % control and 84 % control | 34 % control and 68 % control |  |  |  | % control (HCVpp entry), lysine scanning [1]: 67 % control and 81 % control and 82 % control and 94 % control and 116 % control and 108 % control
4 | A-I-K-W-E-Y-V-L-L-L-F-L-A [SEQ ID NO: 97] | 80 % control and 101 % control and 105 % control and 102 % control and 95 % control and 97 % control | 72 % control and 102 % control | 76 % control and 92 % control | 72 % control and 92 % control | 79 % control and 69 % control | 46 % control and 51 % control | 30 % control and 47 % control | 19 % control and 37 % control | 24% |  |  |  |  |  |  |  |  |  |  |  | % control (HCVpp entry), alanine scanning [9]: 55 % control and 80 % control; % control (HCVpp entry), alanine scanning [10]: 53 % control and 50 % control
5 | A-I-K-W-E-Y-V-L-L-L-F-L-K [SEQ ID NO: 137] |  |  |  |  |  |  |  |  |  | 58 % control and 92 % control | 80 % control and 106 % control | 82 % control and 97 % control | 100 % control and 89 % control | 78 % control and 94 % control | 68 % control and 74 % control | 54 % control and 77 % control | 23 % control and 28 % control |  |  |  | % control (HCVpp entry), lysine scanning [1]: 72 % control and 123 % control and 80 % control and 82 % control and 103 % control and 135 % control
6 | A-I-K-W-E-Y-V-L-L-L-F-L-L [SEQ ID NO: 106] |  |  |  |  |  |  |  |  |  |  |  |  |  |  |  |  |  |  |  |  | HCVpp % inh (truncated peptides tested at 50 uM in 1% DMSO): 92%
7 | A-I-K-W-E-Y-V-L-L-L-F-L-P [SEQ ID NO: 127] |  |  |  |  |  |  |  |  |  |  |  |  |  |  |  |  |  | 90 % control and 86 % control and 75 % control and 122 % control and 113 % control | 84 % control and 81 % control | 71 % control and 85 % control | % control (HCVpp entry), proline scanning [4]: 66 % control and 53 % control; % control (HCVpp entry), proline scanning [5]: 102 % control and 74 % control; % control (HCVpp entry), proline scanning [9]: 78 % control and 83 % control; % control (HCVpp entry), proline scanning [6]: 77 % control and 74 % control; % control (HCVpp entry), proline scanning [7]: 63 % control and 72 % control; % control (HCVpp entry), proline scanning [8]: 29 % control and 27 % control; % control (HCVpp entry), proline scanning [10]: 57 % control and 29 % control
8 | A-I-K-W-E-Y-V-L-L-L-F-P-L (AIKWEYVLLLFPL; HCV peptide) [SEQ ID NO: 126] |  |  |  |  |  |  |  |  |  |  |  |  |  |  |  |  |  | 83 % control and 66 % control and 89 % control and 87 % control and 104 % control and 119 % control | 88 % control and 91 % control | 88 % control and 93 % control | % control (HCVpp entry), proline scanning [4]: 98 % control and 89 % control; % control (HCVpp entry), proline scanning [5]: 86 % control and 76 % control; % control (HCVpp entry), proline scanning [9]: 83 % control and 82 % control; % control (HCVpp entry), proline scanning [6]: 68 % control and 81 % control; % control (HCVpp entry), proline scanning [7]: 72 % control and 85 % control; % control (HCVpp entry), proline scanning [8]: 43 % control and 44 % control; % control (HCVpp entry), proline scanning [10]: 55 % control and 80 % control
9 | A-I-K-W-E-Y-V-L-L-L-K-L-L (AIKWEYVLLLKLL; HCV peptide) [SEQ ID NO: 135] |  |  |  |  |  |  |  |  |  | 72 % control and 99 % control | 76 % control and 84 % control | 67 % control and 74 % control | 79 % control and 104 % control | 90 % control and 89 % control | 75 % control and 107 % control | 87 % control and 70 % control | 57 % control and 43 % control |  |  |  | % control (HCVpp entry), lysine scanning [10]: 37 % control and 29 % control
10 | A-I-K-W-E-Y-V-L-L-L-P-L-L (AIKWEYVLLLPLL; HCV peptide) [SEQ ID NO: 125] |  |  |  |  |  |  |  |  |  |  |  |  |  |  |  |  |  | 99 % control and 91 % control and 92 % control and 111 % control and 101 % control and 95 % control | 104 % control | 99 % control and 75 % control | % control (HCVpp entry), proline scanning [4]: 82 % control and 85 % control; % control (HCVpp entry), proline scanning [5]: 109 % control and 97 % control; % control (HCVpp entry), proline scanning [9]: 102 % control and 80 % control; % control (HCVpp entry), proline scanning [6]: 58 % control and 60 % control; % control (HCVpp entry), proline scanning [7]: 76 % control and 63 % control; % control (HCVpp entry), proline scanning [8]: 54 % control and 73 % control; % control (HCVpp entry), proline scanning [10]: 59 % control and 68 % control
